From patent USRE38825E1, “Glyphosate tolerant plants” (Monsanto Technology LLC, priority 1990, dated 2005)

Columns and labels:
Type in all cases: biochemical, bacterial isolate LBAA (Pseudomonas strain LBAA)
[1] = molecular target: LBAA glyphosate oxidoreductase variant ARG 334 (His334 to Arg) (Ochrobactrum sp. G-1, UniProt D2KI28, H334R/S2A); assay: Kinetic analysis of glyphosate oxidoreductase variant ARG 334 (site-directed mutagenesis)
[2] = molecular target: LBAA glyphosate oxidoreductase variant w1w2v3 (SER84, LYS153, ARG334) (Ochrobactrum sp. G-1, UniProt D2KI28, H334R/S2A); assay: Kinetic analysis of domain switches, clone w1w2v3; conditions: substrate glyphosate
Method: (§1) The mutagenesis procedure used was that of Mn++-poisoned PCR and the template was a linearized glyphosate oxidoreductase gene plasmid containing the synthetic glyphosate oxidoreductase gene (SEQ ID NO:8). The oligonucleotide primers used were homologous to regions in the vector and flanking the glyphosate oxidoreductase gene. The PCR conditions employed were as follows: 1 minute at 94° C., 2 minutes at 55° C., and 3 minutes at 72° C. and with 35 cycles. A 5:1 ratio of dCTP+dGTP+TTP to dATP was used. The reactions contained MnCl2 at 125, 250, 375, or 500 μM. After the reaction, the amplified product was recloned into a vector containing a weak E. coli promoter. This vector was a pBR327 derivative containing the araBAD promoter and suitable cloning sites. […] Growth rates were determined by measuring A550 over a 96 hour period. […] Protein concentrations were determined using the Bio-Rad protein dye-binding assay. […] Ten minutes was determined to be the optimal time for the enzyme assay using 10 μg lysate. […] Enzyme activity was determined from the amount of glyoxylate-DNPH adduct formed by measuring A520 against a standard of glyoxylate. […] The Km and Vmax were determined from Lineweaver Burk, Eadie-Hofstee and hyperbolic kinetic plots. […]

[3] = molecular target: LBAA glyphosate oxidoreductase variant v1v2w3 (GLY84, ARG153, HIS334) (Ochrobactrum sp. G-1, UniProt D2KI28, K153R/S2A/S84G); assay: Kinetic analysis of domain switches, clone v1v2w3; conditions: substrate glyphosate
Method: as §1

In the case of `O=C(O)CNCP(=O)(O)O` [glyphosate, N-phosphonomethyl-glycine], the “VmKm (Glyp)” value [1] is reported as “.23”, the VmKm [2] is reported as 0.375 and the VmKm [3] is reported as 0.021.
